Test [1] deals with T1, D3R (Homo sapiens, UniProt P35462). In words: Radioligand competition binding at human D3R ([3H]N-methylspiperone, HEK293 membranes). Also on record: expressed in transfected cells; host or cells: HEK293. The following applies: for Ki: [3H]N-methylspiperone, HEK 293 cells expressing hD3R, read-out: Ki ± SEM, D3R; for D2/D3: ratio of Ki values D2R/D3R; for D4/D3: ratio of Ki values D4R/D3R. How it is done:
The novel hybrid derivatives 3–11 were tested at hD2R, hD3R, or hD4R stably expressed in HEK293 cells by competition binding assays, using [^3H]N-methylspiperone as the radioligand, to evaluate their D2-like affinity and subtype selectivity, following the previously reported procedures.[41],[45],[46]
Binding at dopamine D2-like receptors was determined using previously described methods.[41],[45],[46] Membranes were prepared from HEK293 cells stably expressing human D2, D3, or D4, grown in a 50:50 mix of Dulbecco’s minimal essential medium (DMEM) and Ham’s F12 culture media, supplemented with 20 mM HEPES, 2 mM L-glutamine, 0.1 mM nonessential amino acids, 1× antibiotic/antimycotic, 10% heat-inactivated fetal bovine serum, and 200 μg/mL hygromycin (Life Technologies, Grand Island, NY) and kept in an incubator at 37 °C and 5% CO2. Upon reaching 80–90% confluency, the cells were harvested using premixed Earle’s Balanced Salt Solution (EBSS) with 5 μM EDTA (Life Technologies) and centrifuged at 3000 rpm for 10 min at 21 °C. The supernatant was removed, and the pellet was resuspended in 10 mL hypotonic lysis buffer (5 mM MgCl2, 5 mM Tris, pH 7.4 at 4 °C) and centrifuged at 20,000 rpm for 30 min at 4 °C. The pellet was then resuspended in fresh EBSS buffer made from 8.7 g/L Earle’s Balanced Salts without phenol red (US Biological, Salem, MA), 2.2 g/L sodium bicarbonate, pH to 7.4. A Bradford protein assay (Bio-Rad, Hercules, CA) was used to determine the protein concentration, and membranes were diluted to 500 μg/mL and stored at −80 °C for later use. Radioligand competition binding experiments were conducted using thawed membranes. Test compounds were freshly dissolved in 30% DMSO and 70% H2O to a stock concentration of 100 μM. To assist the solubilization of free-base compounds, 10 μL of glacial acetic acid was added along with DMSO. Each test compound was then diluted into 13 half-log serial dilutions using 30% DMSO vehicle; the final test concentrations ranged from 10 μM to 10 pM. The previously frozen membranes were diluted in fresh EBSS to a 100 μg/mL (for D2 or D3) or 200 μg/mL (D4) stock for binding. Radioligand competition experiments were conducted in glass tubes containing 300 μL of fresh EBSS buffer, 50 μL of diluted test compound, 100 μL of membranes (10 μg of total protein for D2 or D3 and 20 μg of total protein for D4), and 50 μL of [^3H]N-methylspiperone (0.4 nM final concentration; PerkinElmer). Nonspecific binding was determined using 10 μM butaclamol (Sigma-Aldrich, St. Louis, MO), and total binding was determined with the 30% DMSO vehicle. All compound dilutions were tested in triplicate and the reaction was incubated for 1 h at room temperature. The reaction was terminated by filtration through Whatman GF/B filters, presoaked for 1 h in 0.5% polyethylenimine, using a Brandel R48 filtering manifold (Brandel Instruments, Gaithersburg, MD). The filters were washed three times with 3 mL of ice-cold EBSS buffer and transferred to scintillation vials. CytoScint liquid scintillation cocktail (3 mL, MP Biomedicals, Solon, OH) was added, and vials were counted using a PerkinElmer Tri-Carb 2910 TR liquid scintillation counter (Waltham, MA).
(Loss of bound radioactivity is the signal in a displacement assay; it reports binding, not function.)

Test [2] addresses T1, D3R. In words: D3 mitogenesis functional assay (CHOp-D3 cells). It counts as cell-based. Set-up: expressed in transfected cells; host or cells: CHOp-D3 cells. The settings on record: for EC50 / % stimul., D3 mitogenesis assay: agonist mode; for % stimul., D3 mitogenesis assay: standard agonist quinpirole; for IC50 / % inhibition (efficacy), D3R when tested as an antagonist: antagonist mode; for IC50: inhibition of quinpirole stimulation of mitogenesis, read-out: IC50, D3R when tested as an antagonist; for % inhibition (efficacy), D3R when tested as an antagonist: standard antagonist NGB 2904; for functional behavior at D3R: in words. On the procedure: CHOp-D2 and CHOp-D3 cells are maintained in α-MEM with 10% fetal bovine serum (FBS, Atlas Biologicals), 0.05% pen-strep, and 400 μg/mL of G418. […] The cells are incubated at 37 °C in α-MEM with 10% FBS. After 48–72 h, the cells are rinsed twice with serum-free α-MEM and incubated for 24 h at 37 °C. Serial dilutions of test compounds are made by the Biomek robotics system in serum-free α-MEM. In the functional assay for agonists, the medium is removed and replaced with 100 μL of test compound in serum-free α-MEM. In the antagonist assay, the serial dilution of the putative antagonist test compound is added in 90 μL (1.1× of final concentration) and 300 nM quinpirole (30 nM final) is added in 10 μL. After another 24 h (D2) or 16 h (D3) incubation at 37 °C, 0.25 μCi of [^3H]thymidine in αMEM supplemented with 10% FBS is added to each well, and the plates are further incubated for 2 h at 37 °C. The cells are trypsinized by addition of 10× trypsin solution (1% trypsin in calcium–magnesium-free phosphate-buffered saline), and the plates are filtered and counted as usual. Quinpirole is run each day as an internal control, and dopamine is included for comparative purposes.

Another test addresses 5-HT2AR (Homo sapiens, UniProt P28223). In words: 5-HT2A IP-1 formation (HEK-h5HT2A cells). The settings on record: for % inhib., 5-HT2A IP-1 formation: antagonist mode, normalized to the inhibition by 10 μM ketanserin; for functional behavior at 5-HT2AR: in words.

What is called Ki is the dissociation constant of the complex between target and ligand, obtained from inhibition or displacement. By EC50 is commonly meant the concentration needed to bring the measured effect to its halfway point. Broadly, the IC50 is the concentration at which inhibition is half-maximal.

Structures are written as SMILES.

Sequence of 5-HT2AR (P28223 whole entry): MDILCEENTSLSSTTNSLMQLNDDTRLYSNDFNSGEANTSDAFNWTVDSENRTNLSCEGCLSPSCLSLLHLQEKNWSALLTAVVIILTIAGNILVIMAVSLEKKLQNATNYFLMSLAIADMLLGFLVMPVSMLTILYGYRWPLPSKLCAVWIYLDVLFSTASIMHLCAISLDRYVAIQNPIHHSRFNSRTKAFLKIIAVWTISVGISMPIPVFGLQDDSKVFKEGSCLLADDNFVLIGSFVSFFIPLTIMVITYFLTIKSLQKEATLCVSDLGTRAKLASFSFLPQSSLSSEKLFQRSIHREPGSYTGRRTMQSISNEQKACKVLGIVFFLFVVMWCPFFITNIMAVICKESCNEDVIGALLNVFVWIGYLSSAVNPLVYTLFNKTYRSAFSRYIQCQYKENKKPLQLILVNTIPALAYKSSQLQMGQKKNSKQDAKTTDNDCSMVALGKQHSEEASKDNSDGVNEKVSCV
T1 sequence (P35462 whole entry): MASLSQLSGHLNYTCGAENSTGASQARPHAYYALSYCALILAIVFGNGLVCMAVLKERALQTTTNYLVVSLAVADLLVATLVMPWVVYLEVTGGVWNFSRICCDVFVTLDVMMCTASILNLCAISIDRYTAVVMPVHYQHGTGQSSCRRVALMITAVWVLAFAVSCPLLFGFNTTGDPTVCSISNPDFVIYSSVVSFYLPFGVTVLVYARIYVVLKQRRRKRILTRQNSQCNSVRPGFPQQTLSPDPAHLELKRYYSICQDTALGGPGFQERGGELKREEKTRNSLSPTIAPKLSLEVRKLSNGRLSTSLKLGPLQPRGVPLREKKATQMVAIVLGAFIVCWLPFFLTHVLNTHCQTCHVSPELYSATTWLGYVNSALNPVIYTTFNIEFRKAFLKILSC
Procedure for 5-HT2AR: HEK-h5HT2A or HEK-h5HT2C cells are used as the tissue source. The day before the experiment, cells are plated in 24-well plates at a density of 400,000 cells per well using DMEM supplemented with charcoal-stripped FetalClone. Drugs are made up in stimulation buffer supplied in the kit. Medium is removed from the well, test compounds or serotonin or antagonist or buffer is added, and the cells are incubated for 1 h. The cells are lysed for 30 min, and 50 μL of cell lysate is added to the IP-1 plates. After the addition of appropriate antibodies, the plates are incubated for 3 h, washed six times, incubated with the substrate for 20 min, and, after termination of the reaction, the plate is read on a plate reader at 450 nm with a correction at 620 nm.

For `O=C(NCCCCN1CCN(c2cccc(Cl)c2Cl)CC1)C1COCC(c2ccccc2)(c2ccccc2)O1` (centres unmarked) [compound 3, N-(4-(4-(2,3-Dichlorophenyl)piperazin-1-yl)butyl)-6,6-diphenyl-1,4-dioxane-2-carboxamide], on D3R [1], the Ki amounted to 2.39 ± 0.69 nM, the D2/D3 stood at 143 and the D4/D3 was 566. Besides, on D3R [2], the EC50 was determined as 9.8 ± 1.6 nM; the “% stimul., D3 mitogenesis assay” value is given as 36%; the IC50 was 38 nM; the “% inhibition (efficacy), D3R when tested as an antagonist” value (“% inhibition (efficacy), D3R” for short) came to 82.7%. At D3R [2], the “functional behavior at D3R” value is listed as “partial agonist”. Moreover, the “% inhib., 5-HT2A IP-1 formation” value at 5-HT2AR is on record as “(45.4) %”.
In the case of `O=C(NCCCCN1CCN(c2cccc(Cl)c2Cl)CC1)C1COC(c2ccccc2)(c2ccccc2)CO1` (centres unmarked) [compound 6, N-(4-(4-(2,3-Dichlorophenyl)piperazin-1-yl)butyl)-5,5-diphenyl-1,4-dioxane-2-carboxamide], at D3R [1], the inhibitory constant (Ki) is 1.58 ± 0.24 nM, the D2/D3 was found to be 18 and the D4/D3 amounted to 35. Also, on D3R [2], the EC50 came out at 2.72 nM; the “% stimul., D3 mitogenesis assay” value is 25.7%; the IC50 was found to be 6.6 nM; the “% inhibition (efficacy), D3R” value is 64.0%. Also, the “functional behavior at D3R” value at D3R [2] is “D3R and 5-HT2CR partial agonists with high and low potency, respectively”. At 5-HT2AR, the “% inhib., 5-HT2A IP-1 formation” value is listed as “(88.6) %”; the “functional behavior at 5-HT2AR” value is “efficacious D2R and 5-HT2AR antagonists with high and low potency, respectively”.
As for `O=C(NCCCCN1CCN(c2cccc(Cl)c2Cl)CC1)C1COc2ccccc2O1` (centres unmarked) [compound 9, N-(4-(4-(2,3-Dichlorophenyl)piperazin-1-yl)butyl)-2,3-dihydrobenzo[b][1,4]dioxine-2-carboxamide], at D3R [1], the Ki turned out to be 2.16 ± 0.63 nM, the D2/D3 is 22 and the D4/D3 turned out to be 35. In addition, on D3R [2], the EC50 was determined as 5 ± 1.7 nM; the “% stimul., D3 mitogenesis assay” value is on record as 34.0%; the IC50 stood at 40.4 nM; the “% inhibition (efficacy), D3R” value amounted to 64.2%. In addition, at D3R [2], the “functional behavior at D3R” value is “D3R and 5-HT2CR partial agonists with high and low potency, respectively”. Besides, on 5-HT2AR, the “% inhib., 5-HT2A IP-1 formation” value is “(86.8) %”; the “functional behavior at 5-HT2AR” value was “efficacious D2R and 5-HT2AR antagonists with high and low potency, respectively”.

For the origin of these results see PMC8498988, “Scaffold Hybridization Strategy Leads to the Discovery of Dopamine D3 Receptor-Selective or Multitarget Bitopic Ligands Potentially Useful for Central Nervous System Disorders” (ACS Chemical Neuroscience, 2021).
